Laboratory results from patent US12083139B2, “Use of IGF-2 receptor agonist ligands for treatment of Angelman Syndrome and autism” (New York University, priority 2018, dated 2024).
Read-outs that look alike come from different tables or passages of the source.

Tests used:
Ube3a−/+ (AS) mice [1] = test: Hindlimb clasping in AS mice; assay type: in vivo; conditions: 850 μg/kg s.c. 20 min before test
Procedure: FIG. 5. M6P reverses cognitive and motor deficits in AS mice. Experimental timelines are shown above graphs. In all experiments mice received a s.c. injection of either vehicle or 850 μg/Kg of M6P (IGF-2R.L1 or L1)(↑) 20 min before either training or testing. (A) Percent exploration preference for a novel object compared to a familiar object during the nOR paradigm of WT (Control) and Ube3a−/+(AS) mice injected with vehicle or IGF-2R.L1 20 min before training, and tested at 4 h and 24 h after training. N=4/group. Data are expressed as the mean±s.e.m. Two-way analysis of variance (ANOVA) followed by Bonferroni post-hoc tests. *P<0.05, **P<0.01, ***P<0.001. (B) Percent of correct alternations (% Correct) in a Y-maze of WT and AS mice injected with vehicle or M6P before testing (Test). Data are expressed as the mean (±s.e.m.). (C) Hindlimb clasping scores of WT and AS mice injected with vehicle or IGF-2R.L1, 20 min before Test. Hindlimb clasping scores are measured and expressed as following: If the hindlimbs are consistently splayed outward, away from the abdomen, it is assigned a score of 0. If one hindlimb is retracted toward the abdomen for more than 50% of the time suspended, it receives a score of 1. […]
(§1) FIG. 6. […] Data are expressed as the % mean±s.e.m. […]
L2 injection reversed motor deficits as measured by hindlimb clasping.

Ube3a−/+ (AS) mice [2] = test: RotaRod test (accelerating rotating rod) in AS mice; assay type: in vivo; conditions: s.c. injection 20 min before test (L2 850 μg/kg)
Procedure: (§2) FIG. 1. IGF-2 reverses most behavioral deficits observed in a mouse model of AS. Experimental timelines are shown above graphs. In all experiments mice received a s.c. injection of either vehicle or IGF-2 (↑) 20 min before either training or testing. All data are expressed as the mean±s.e.m. N=8-12 per group. Two-way analysis of variance (ANOVA) followed by Bonferroni post-hoc tests. *P<0.05, **P<0.01, ***P<0.001. (A) Percentage of time spent freezing before (Pre-US) or after (Post-US) the shock delivery during contextual fear conditioning training and at testing at 24 hours (h) after training (Test) of normal mice (wild type, WT), which served as controls and Ube3a−/+ mice (mouse model of AS, also referred to as mice) injected with vehicle or IGF-2. (B) Percent exploration preference for a novel object compared to a familiar object during novel object recognition of WT and Ube3a−/+ mice injected with vehicle or IGF-2, 20 min before training, tested at 4 h and 24 h after training. (C) Percent of correct alternations (% Correct) in a Y-maze of WT and Ube3a−/+ mice injected with vehicle or IGF-2 before testing (Test). […]
as §1
AS is also associated with robust motor impairments, which again are reproduced in the AS mice. Motor coordination and ability is reliably assessed in mice by placing them on an accelerating rotating rod (RotaRod test). […]

WT (Control) mice = test: Novel object recognition (nOR) in WT mice; assay type: in vivo
Procedure: (§3) FIG. 1. IGF-2 reverses most behavioral deficits observed in a mouse model of AS. Experimental timelines are shown above graphs. In all experiments mice received a s.c. injection of either vehicle or IGF-2 (↑) 20 min before either training or testing. All data are expressed as the mean±s.e.m. N=8-12 per group. Two-way analysis of variance (ANOVA) followed by Bonferroni post-hoc tests. *P<0.05, **P<0.01, ***P<0.001. (A) Percentage of time spent freezing before (Pre-US) or after (Post-US) the shock delivery during contextual fear conditioning training and at testing at 24 hours (h) after training (Test) of normal mice (wild type, WT), which served as controls and Ube3a−/+ mice (mouse model of AS, also referred to as mice) injected with vehicle or IGF-2. (B) Percent exploration preference for a novel object compared to a familiar object during novel object recognition of WT and Ube3a−/+ mice injected with vehicle or IGF-2, 20 min before training, tested at 4 h and 24 h after training. (C) Percent of correct alternations (% Correct) in a Y-maze of WT and Ube3a−/+ mice injected with vehicle or IGF-2 before testing (Test). (D) Latency to fall off from a rotating rod by WT and Ube3a−/+ mice injected with vehicle or IGF-2, 20 min before Test, and tested again 3 and 7 days later. (E) Time spent burying marbles by WT and Ube3a−/+ mice injected with vehicle or IGF-2, 20 min before Test. (F) Time spent in the center of an open field by WT and Ube3a−/+ mice following a vehicle or IGF-2 injection given 20 min before Test. The bars for each set from left to right are: WT Vehicle, WT IGF-2, Ube3a−/+ Vehicle, and Ube3a−/+ IGF-2.
(§4) FIG. 5. M6P reverses cognitive and motor deficits in AS mice. Experimental timelines are shown above graphs. In all experiments mice received a s.c. injection of either vehicle or 850 μg/Kg of M6P (IGF-2R.L1 or L1)(↑) 20 min before either training or testing. (A) Percent exploration preference for a novel object compared to a familiar object during the nOR paradigm of WT (Control) and Ube3a−/+(AS) mice injected with vehicle or IGF-2R.L1 20 min before training, and tested at 4 h and 24 h after training. N=4/group. Data are expressed as the mean±s.e.m. Two-way analysis of variance (ANOVA) followed by Bonferroni post-hoc tests. *P<0.05, **P<0.01, ***P<0.001. (B) Percent of correct alternations (% Correct) in a Y-maze of WT and AS mice injected with vehicle or M6P before testing (Test). Data are expressed as the mean (±s.e.m.). (C) Hindlimb clasping scores of WT and AS mice injected with vehicle or IGF-2R.L1, 20 min before Test. Hindlimb clasping scores are measured and expressed as following: If the hindlimbs are consistently splayed outward, away from the abdomen, it is assigned a score of 0. If one hindlimb is retracted toward the abdomen for more than 50% of the time suspended, it receives a score of 1. If both hindlimbs are partially retracted toward the abdomen for more than 50% of the time suspended, it receives a score of 2. If its hindlimbs are entirely retracted and touching the abdomen for more than 50% of the time suspended, it receives a score of 3. Data are expressed in scores. B and C: N=8-14 per group. Two-way analysis of variance (ANOVA) followed by Tukey post-hoc tests. *P<0.05, **P<0.01, ***P<0.001.
FIG. 6. PnM6P reverses memory and motor deficits in AS mice. Experimental timelines are shown above graphs. […] Data are expressed as the % mean±s.e.m. […]

Ube3a−/+ (AS) mice [3] = test: Novel object recognition (nOR) in AS mice; assay type: in vivo
Procedure: as §3, §4
FIG. 6. PnM6P reverses memory and motor deficits in AS mice. Experimental timelines are shown above graphs. In all experiments mice received a s.c. injection of either vehicle or 850 μg/Kg of phosphonate-M6P (PnM6P) called IGF-2R.L2 (or L2) (↑) 20 min before either training or testing. (A) Percent exploration preference for a novel object compared to a familiar object during the nOR paradigm of WT (Control) and Ube3a−/+ (AS) mice injected with vehicle or L2 before training, and tested at 4 h, 24 h and 5 days (5 d) after training. N=4/group. Data are expressed as the % mean±s.e.m. (B). […]

Ube3a−/+ (AS) mice [4] = test: Spontaneous alternation in three-arm Y-maze in AS mice; assay type: in vivo; conditions: s.c. injection 20 min before test (M6P 850 μg/kg)
Procedure: as §2
FIG. 5. […] Data are expressed as the mean±s.e.m. […] Data are expressed as the mean (±s.e.m.). […] Hindlimb clasping scores are measured and expressed as following: If the hindlimbs are consistently splayed outward, away from the abdomen, it is assigned a score of 0. […]

IGF-2 receptor = IGF-2 receptor (Homo sapiens, UniProt P11717); conditions: cited from earlier work
[5] = tested on: Ube3a−/+ mice (mouse model of AS); test: Contextual fear conditioning (CFC) in AS mice; assay type: in vivo; conditions: s.c. injection 20 min before training, test 24 h after training
Procedure: as §2, with “training.” for “training. (C) Percent of correct alternations (% Correct) in a Y-maze of WT and Ube3a−/+ mice injected with vehicle or IGF-2 before testing (Test).”
As measures of learning/cognitive responses, which are known to be altered in Angelman Syndrome (AS), we tested different types of aversive and non-aversive memories. […] We tested memory retention one day later (a time that is used to measure long-term memory) by placing mice back in the same chamber and measured their fear-related (freezing) behavior.

Ube3a−/+ (AS) mice [6] = test: Marble-burying test in AS mice; assay type: in vivo; conditions: s.c. injection 20 min before test
Procedure: as §3, with “(F) Time spent in the center of an open field by WT and Ube3a−/+ mice following a vehicle or IGF-2 injection given 20 min before Test. The bars for each set from left to right are: WT Vehicle, WT IGF-2, Ube3a−/+ Vehicle, and Ube3a−/+ IGF-2.” left out

Ube3a−/+ (AS) mice [7] = test: Open field (center entry, anxiety-like behavior) in AS mice; assay type: in vivo; conditions: s.c. injection 20 min before test
Procedure: as §2
To measure the effect of IGF-2 on anxiety-like behavior we employed open field and measured center entry (which measures anxiety behavior): No effect of IGF-2 treatment was found on AS mice, which remained altered compared to the behavior of normal mice (FIG. 1F).

[8] = L2 850 μg/kg s.c. before training, 5 d test
[9] = s.c. injection 20 min before training (M6P and L2 850 μg/kg), test 24 h after training
[10] = s.c. injection 20 min before training (M6P and L2 850 μg/kg), test 4 h after training

Chain of IGF-2 receptor (P11717 41-2491): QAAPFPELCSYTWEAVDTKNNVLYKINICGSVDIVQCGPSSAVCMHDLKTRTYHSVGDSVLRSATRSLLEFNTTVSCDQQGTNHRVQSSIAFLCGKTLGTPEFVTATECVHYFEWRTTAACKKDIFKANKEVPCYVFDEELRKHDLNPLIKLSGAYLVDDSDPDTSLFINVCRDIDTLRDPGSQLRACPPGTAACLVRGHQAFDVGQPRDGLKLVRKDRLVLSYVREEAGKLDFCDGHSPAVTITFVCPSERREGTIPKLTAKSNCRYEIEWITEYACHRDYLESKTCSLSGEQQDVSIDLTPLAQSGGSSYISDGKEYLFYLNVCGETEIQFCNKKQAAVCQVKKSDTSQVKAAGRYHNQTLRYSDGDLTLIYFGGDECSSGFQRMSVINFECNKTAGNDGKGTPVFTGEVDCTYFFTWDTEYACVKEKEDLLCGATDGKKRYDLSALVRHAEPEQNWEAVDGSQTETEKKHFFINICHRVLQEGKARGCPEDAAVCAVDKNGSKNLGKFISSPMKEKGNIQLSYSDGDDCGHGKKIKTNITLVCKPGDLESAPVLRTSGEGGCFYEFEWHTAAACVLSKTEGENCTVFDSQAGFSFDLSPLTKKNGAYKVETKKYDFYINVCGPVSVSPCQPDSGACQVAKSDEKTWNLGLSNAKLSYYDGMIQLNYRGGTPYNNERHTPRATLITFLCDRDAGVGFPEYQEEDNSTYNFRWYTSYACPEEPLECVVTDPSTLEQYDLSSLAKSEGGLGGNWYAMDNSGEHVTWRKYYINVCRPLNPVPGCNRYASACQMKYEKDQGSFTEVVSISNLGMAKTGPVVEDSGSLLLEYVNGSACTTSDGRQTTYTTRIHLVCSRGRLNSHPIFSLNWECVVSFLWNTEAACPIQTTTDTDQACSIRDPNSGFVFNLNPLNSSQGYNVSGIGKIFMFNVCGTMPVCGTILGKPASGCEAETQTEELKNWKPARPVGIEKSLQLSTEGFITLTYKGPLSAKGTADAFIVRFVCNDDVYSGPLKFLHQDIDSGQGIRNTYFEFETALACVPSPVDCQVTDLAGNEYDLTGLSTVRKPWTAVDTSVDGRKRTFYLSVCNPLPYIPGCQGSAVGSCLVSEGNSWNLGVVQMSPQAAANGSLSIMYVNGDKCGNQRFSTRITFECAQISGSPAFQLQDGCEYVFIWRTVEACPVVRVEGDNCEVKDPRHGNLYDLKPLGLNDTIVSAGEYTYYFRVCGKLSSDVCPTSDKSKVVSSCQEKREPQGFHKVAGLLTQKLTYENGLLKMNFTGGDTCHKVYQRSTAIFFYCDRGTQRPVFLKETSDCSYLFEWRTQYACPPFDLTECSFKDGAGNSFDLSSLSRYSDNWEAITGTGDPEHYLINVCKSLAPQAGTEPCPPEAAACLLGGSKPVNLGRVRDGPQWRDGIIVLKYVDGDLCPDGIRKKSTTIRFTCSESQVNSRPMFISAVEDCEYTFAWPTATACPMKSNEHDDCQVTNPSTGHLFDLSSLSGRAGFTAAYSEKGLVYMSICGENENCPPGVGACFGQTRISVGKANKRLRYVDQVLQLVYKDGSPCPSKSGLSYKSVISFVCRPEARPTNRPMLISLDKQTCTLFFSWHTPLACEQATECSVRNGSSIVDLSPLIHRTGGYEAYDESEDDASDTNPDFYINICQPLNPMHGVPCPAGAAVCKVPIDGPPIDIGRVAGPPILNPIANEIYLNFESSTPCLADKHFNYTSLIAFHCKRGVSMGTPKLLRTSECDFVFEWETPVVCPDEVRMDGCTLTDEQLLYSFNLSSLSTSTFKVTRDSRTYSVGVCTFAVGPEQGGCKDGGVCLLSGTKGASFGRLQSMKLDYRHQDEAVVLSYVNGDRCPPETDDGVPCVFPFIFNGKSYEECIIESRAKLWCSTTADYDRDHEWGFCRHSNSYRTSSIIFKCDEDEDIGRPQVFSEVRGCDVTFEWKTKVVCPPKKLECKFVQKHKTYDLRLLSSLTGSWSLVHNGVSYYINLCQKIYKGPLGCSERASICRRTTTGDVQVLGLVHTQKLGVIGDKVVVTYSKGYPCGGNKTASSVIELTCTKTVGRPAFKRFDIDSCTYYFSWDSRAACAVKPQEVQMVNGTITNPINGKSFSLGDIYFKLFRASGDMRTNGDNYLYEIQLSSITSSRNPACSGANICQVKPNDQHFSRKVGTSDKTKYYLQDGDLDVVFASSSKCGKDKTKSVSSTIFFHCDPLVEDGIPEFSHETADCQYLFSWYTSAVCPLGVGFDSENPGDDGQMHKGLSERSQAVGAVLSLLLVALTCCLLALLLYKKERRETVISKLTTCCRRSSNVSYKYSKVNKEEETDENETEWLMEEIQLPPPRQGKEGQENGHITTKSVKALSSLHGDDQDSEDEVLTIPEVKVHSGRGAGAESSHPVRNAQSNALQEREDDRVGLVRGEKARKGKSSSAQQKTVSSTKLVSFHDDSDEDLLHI

Row | Molecule | Hindlimb clasping score (motor deficit) (Ube3a−/+ (AS) mice [1]) | Latency to fall off rotating rod (motor ability) (Ube3a−/+ (AS) mice [2]) | Exploration preference for novel object (nOR memory) (WT (Control) mice; [8]) | Exploration preference for novel object (nOR memory) (WT (Control) mice; s.c. injection 20 min before training (L2 850 μg/kg), test 4 h after training) | Exploration preference for novel object (nOR memory) (WT (Control) mice; [9]) | Exploration preference for novel object (nOR memory) (Ube3a−/+ (AS) mice [3]; [8]) | Exploration preference for novel object (nOR memory) (Ube3a−/+ (AS) mice [3]; [10]) | Exploration preference for novel object (nOR memory) (Ube3a−/+ (AS) mice [3]; [9]) | Correct alternations in Y-maze (exploratory strategy/working memory) (Ube3a−/+ (AS) mice [4]) | Kd (IGF-2 receptor; one of the two known binding sites, Olson et al., J. Biol. Chem. 2004, read-out: Affinity for IGF-2 receptor) | Kd (IGF-2 receptor; other of the two known binding sites, Olson et al., J. Biol. Chem. 2004, read-out: Affinity for IGF-2 receptor) | Freezing (long-term memory retention) in contextual fear conditioning [5] | Marble burying (time spent burying) (Ube3a−/+ (AS) mice [6]) | Open field center entry (anxiety-like behavior) (Ube3a−/+ (AS) mice [7]) | Kd (IGF-2 receptor; Williams et al., Science 2012, read-out: Kd for IGF-2 receptor)
1 | COC1OC(CCP(=O)(OCOC(=O)OC(C)C)OCOC(=O)OC(C)C)C(O)C(O)C1O [L2, Methyl 6-Deoxy-6-diisopropyloxycarbonyloxy-methyl-phosphinylmethyl-α-D-mannopyranoside] | returned their hindlimb clasping behavior to control levels | significantly improved their motor ability on the RotaRod | none of the groups (vehicle or L2 injected) showed significant memory | significantly enhanced nOR memory retention in WT mice | showed significant memory compared to vehicle-injected groups | none of the groups (vehicle or L2 injected) showed significant memory | significantly reversed the deficit of AS mice in nOR | showed significant memory compared to vehicle-injected groups |  |  |  |  |  |  | 
2 | O=P(O)(O)OCC1OC(O)C(O)C(O)C1O (stereo not drawn) [M6P, mannose-6-phosphate] | significantly reduced hind limb clasping |  |  |  | significant memory retention |  | reversed memory deficits in AS mice | significant memory retention | completely reversed the deficit | ~1 nM | ~1000 nM |  |  |  | 
3 | IGF-2: insulin-like growth factor 2 (IGF-2 or IGF-II), IGF-2 receptor agonist ligand |  | significant improvement in motor ability |  |  | significant preference for a novel object |  | completely reversed the memory deficits of AS mice | significant preference for a novel object | reverses the repetitive, inflexible behavior |  |  | completely reversed the memory impairment of AS mice | rescued the deficits of the AS mice | No effect | 40 to 60 nM
